According to US11845751B2, “Triazolotriazine derivatives as A2A receptor antagonists” (ZHEJIANG VIMGREEN PHARMACEUTICALS, LTD., priority 2018, dated 2023):

target: T1, A2AR (hADORA2A-HEK293 cells) (Homo sapiens, UniProt P29274); assay: functional cAMP production assay: NECA stimulation of cAMP production and its inhibition by A2AR antagonists; assay type: cell-based; conditions: A2AR-expressing HEK293 cells (hADORA2A-HEK293); NECA at EC80; TR-FRET cAMP readout; read-out: A2AR Potency (IC50, inhibition of NECA-stimulated cAMP production)
T1 construct: expressed in transfected cells; host or cells: HEK293 (hADORA2A-HEK293)
Experimental: The antagonistic activities of the triazolotriazine derivatives of the present invention were measured in a functional cAMP production assay. The assay consists of NECA stimulation of cAMP production and its inhibition by A2AR antagonists in A2AR-expressing HEK293 cells (hADORA2A-HEK293). All cells were cultured in complete medium at 37° C. in 5% CO2. The cells were detached with pancreatin and collected at 200 g for 5 min. After resuspending the cells in fresh complete medium, the cell viability is counted using the trypan blue exclusion method. […] After the cells were diluted with Hank's buffered saline solution containing HEPES (5 mM), BSA stabilizer (0.1%) and […] Rolipram (10 μM), cells were loaded into white opaque 384-well plates (˜500 cells/well, 10 μl/well) and incubated with test compound at a suitable concentration range (11 concentrations) for 20 min at room temperature. Then the A2A receptor agonist NECA (final concentration=EC80, which was determined in the same experiment slightly earlier) was added to the sample and the mixture was incubated again for 30 min at 37° C. […] The inhibition rate (%) was calculated according to the following formula. The IC50 values were calculated from concentration-inhibition (%) curves after log transformation.

T1 sequence (P29274 whole entry): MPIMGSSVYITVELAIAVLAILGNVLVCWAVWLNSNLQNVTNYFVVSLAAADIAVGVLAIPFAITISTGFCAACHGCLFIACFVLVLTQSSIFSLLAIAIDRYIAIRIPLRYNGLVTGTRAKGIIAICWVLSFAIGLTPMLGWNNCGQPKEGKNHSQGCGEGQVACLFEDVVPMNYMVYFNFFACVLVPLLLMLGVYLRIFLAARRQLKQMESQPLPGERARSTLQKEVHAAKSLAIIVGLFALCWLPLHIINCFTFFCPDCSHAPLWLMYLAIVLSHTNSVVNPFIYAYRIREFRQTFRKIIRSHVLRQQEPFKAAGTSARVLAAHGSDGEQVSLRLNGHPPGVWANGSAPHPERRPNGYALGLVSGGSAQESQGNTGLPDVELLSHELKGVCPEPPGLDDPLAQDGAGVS

SMILES | IC50 [nM]
CN(C)Cc1ccc(CCNc2nc(N)n3nc(-c4ccco4)nc3n2)cc1 [Example 306, N5-(4-((Dimethylamino)methyl)phenethyl)-2-(furan-2-yl)-[1,2,4]triazolo[1,5-a][1,3,5]triazine-5,7-diamine] | 163
Nc1nc(NCCc2ccc(OCCN3CC[C@@H](F)C3)cc2)nc2nc(-c3ccco3)nn12 [Example 309, (R)-N5-(4-(2-(3-Fluoropyrrolidin-1-yl)ethoxy)phenethyl)-2-(furan-2-yl)-[1,2,4]triazolo[1,5-a][1,3,5]triazine-5,7-diamine] | 30.4
Nc1nc(NCCc2ccc(NC(=O)CCN3CCC3)cc2)nc2nc(-c3ccco3)nn12 [Example 313, N-(4-(2-((7-Amino-2-(furan-2-yl)-[1,2,4]triazolo[1,5-a][1,3,5]triazin-5-yl)amino)ethyl)-phenyl)-3-(azetidin-1-yl)propanamide] | 13.8
Nc1nc(NCCc2ccc(OCCOCC(F)(F)F)cc2)nc2nc(-c3ccco3)nn12 [Example 314, 2-(Furan-2-yl)-N5-(4-(2-(2,2,2-trifluoroethoxy)ethoxy)phenethyl)-[1,2,4]triazolo[1,5-a][1,3,5]triazine-5,7-diamine] | 15.4
Nc1nc(NCCc2ccc(NCCN3CCOCC3)cc2)nc2nc(-c3ccco3)nn12 [Example 318, 2-(Furan-2-yl)-N5-(4-((2-morpholinoethyl)amino)phenethyl)-[1,2,4]triazolo[1,5-a][1,3,5]triazine-5,7-diamine] | 11.1
Nc1nc(NCCc2ccc(NC(=O)CN3CCOCC3)cc2)nc2nc(-c3ccco3)nn12 [Example 320, N-(4-(2-((7-Amino-2-(furan-2-yl)-[1,2,4]triazolo[1,5-a][1,3,5]triazin-5-yl)amino)ethyl)-phenyl)-2-morpholinoacetamide] | 11.5
CN1CCN(CC(=O)Nc2ccc(CCNc3nc(N)n4nc(-c5ccco5)nc4n3)cc2)CC1 [Example 321, N-(4-(2-((7-Amino-2-(furan-2-yl)-[1,2,4]triazolo[1,5-a][1,3,5]triazin-5-yl)amino)ethyl)-phenyl)-2-(4-methylpiperazin-1-yl)acetamide] | 40.7
CC(C)(C)C(=O)Nc1ccc(CCNc2nc(N)n3nc(-c4ccco4)nc3n2)cc1 [Example 324, N-(4-(2-((7-Amino-2-(furan-2-yl)-[1,2,4]triazolo[1,5-a][1,3,5]triazin-5-yl)amino)ethyl)-phenyl)pivalamide] | 10.8
CC(C)(CO)C(=O)Nc1ccc(CCNc2nc(N)n3nc(-c4ccco4)nc3n2)cc1 [Example 325, N-(4-(2-((7-Amino-2-(furan-2-yl)-[1,2,4]triazolo[1,5-a][1,3,5]triazin-5-yl)amino)ethyl)-phenyl)-3-hydroxy-2,2-dimethylpropanamide] | 11.9
CC(C)(O)C(=O)Nc1ccc(CCNc2nc(N)n3nc(-c4ccco4)nc3n2)cc1 [Example 326, N-(4-(2-((7-Amino-2-(furan-2-yl)-[1,2,4]triazolo[1,5-a][1,3,5]triazin-5-yl)amino)ethyl)-phenyl)-2-hydroxy-2-methylpropanamide] | 10.7
